One assay relates to patient's PB blast cells. The assay can be described thus: ALL blast colony assay. The class given is cell-based. The following applies: Homo sapiens. The method, then:
ALL Blast Colony Assay: The assay we used is a modification of previously described methods. T-cell depletion: Post-Ficoll mononuclear BM cells were incubated with neuraminidase sensitized sheep erthrocytes (SRBC) at 4°C for 2 hours, followed by gradient centrifugation. This procedure was repeated twice. Cells at the interface contained less than 0.5 % T-cells as assessed by AET sensitized SRBC rosette formation and using anti-Leu-4 and anti-Leu-5 monoclonal anti-T-cell antibodies (Becton Dickinson, CA). T-lymphocytes were obtained by recovery of rosetted cells from the pellet following lysis with Tris-buffered ammonium chloride (Sigma, St. Louis, MO). Feeder Cells: Post-Ficoll normal donors' PB cells were depleted of adherent cells by incubation on plastic Petri dishes with 10 % fetal calf serum for 90 min. at 37°C. […]
Cell Culture Procedure: 2 x 10⁵ T-depleted cells were incubated with 40 % RPMI-methylcellulose, 20 % PHA-LCM, 10 % FCS, irradiated feeder cells (10⁵/dish), 16.6 % RPMI in 35 mm Petri dishes. […] Colonies were counted at day 4. […] For control, 2 x 10⁵ irradiated feeder cells were cultured in the same assay system in each experiment to exclude their potential for colony formation Immunocytochemical Method: The cell surface antigens of air dried smears were detected using monoclonal antibodies and intestinal alkaline phosphatase, as previously described. […]

A further assay has as its system HL-60 cells. The assay can be described thus: Colony growth of HL-60 cells. Format: cell-based, human. As for the experimental part: HL-60 cells, a promyeloctic leukemia cell line originally developed by Dr. R. Gallo, NIH, were used. Cells were grown in RPMI supplemented with 10 % heat inactivated fetal calf serum (FCS, Flow Laboratories, Rockville, MO) and 2 mM glutamine (Gibco, Berkely, CA), at densities ranging from 1-2 x 10⁵/ml to 1-10⁶/ml, in a 5 % CO₂ humidified atmosphere at 37°C.
HL-60 cells (10⁴/ml) were plated in 0.8 % methycellulose in RPMI-1640 medium supplemented with 20 % heat inactivated (56°C, 30 min) fetal calf serum at a final volume of 1 ml/culture plate. Cultures were set up in duplicates and maintained at 37°C in a 5 % CO₂ humidified atmosphere. Deferoxamine was dissolved in iron-free RPMI culture medium and added at the initiation of culture at different concentrations (1-10 µM). Colonies were counted at 7 days using an inverted microscope. A cluster of more than 20 cells was defined as a colony. Individual colonies were plucked from culture plates spread on glass slides and morphologically assessed after preparation with Wright's stain and non-specific esterase in the presence of fluoride (29). The self renewal capacity of cells was assessed according to McCulloch et al (30). RPMI-1640 medium was added to culture dishes for 2 hrs; the contents of each dish were then transferred into a tube, centrifuged and washed with medium three times. Cells from each dish were counted separately, and viability was assessed by trypan blue dye exclusion. Cells (1x10⁴/ml) from each dish were recultured in 0.8 % methylcellulose as before.

The subject of a further assay is Lewis lung carcinoma. Briefly: Tumour growth and metastases of Lewis lung carcinoma in mice. The conditions noted are these: 11 injections. The class given is in vivo. As for the experimental part: Female C57B16 mice (10 mice/group, 18-22 g body weight) were i.m. injected into the left hind leg with 0.1 ml of a tumour cell suspension of Lewis lung carcinoma (day 0).
Nine groups of animals were investigated. The test compounds were s.c. administered as follows: physiological saline: once daily for eleven days starting from day 0 up to day 10. DFO: 0.5 ml in distilled water in a dose of 10 and 30 mg/kg once daily for eleven days, on day 0 up to day 10 after tumour inocculation. 10-EDAM: 0.5 ml in distilled water in a dose of 3 and 6 mg/kg, once daily on days 1, 3, 5, 7 and 9 after tumour inocculation.
Both hind legs were removed from the body, weighed, and the difference between the tumour bearing and the tumour free leg was taken as the tumour weight of one idividual mouse.
Lungs were filled up with Pelikan-ink via the trachea, fixed in Fekete-solution and metastases (white spot on black back-ground) on the lung surface were counted microscopically.

The structures appear in SMILES notation.

For `CC(=O)N(O)CCCCCNC(=O)CCC(=O)N(O)CCCCCNC(=O)CCC(=O)N(O)CCCCCN` [DFO, desferioxamine methanesulfonate], the inhibition at 2.15 µM with patient's PB blast cells (2.15 µM DFO, read-out: reduction in blast colonies) was found to be 70%. The minimal effective concentration with patient's PB blast cells (patient's PB blast cells, read-out: DFO concentrations with significant decline in blast colonies) was over 1.25 µM. The “inhibition of HL-60 colony proliferation” value in the assay with HL-60 cells (10 µm DFO) came out at 100%. For the same compound, in the assay on HL-60 cells (Homo sapiens, HL-60, 3.5 µM DFO, read-out: inhibition of HL-60 colony proliferation), the inhibition at 3.5 µM amounted to 50%. In addition, in the assay on Lewis lung carcinoma (group 2: DFO 10 mg/kg s.c.), the “Number of lung metastases % of control” value was determined as 103%, the “Number of lung metastases x̄ ± SD” value is given as 69 ± 26, the “Tumour weight % of control” value is 100% and the “Tumour weight x̄ ± SD” value was 7.56 ± 0.32 g. Besides, in the assay on Lewis lung carcinoma (group 3: DFO 30 mg/kg s.c.), the “Number of lung metastases % of control” value is reported as 78%, the “Number of lung metastases x̄ ± SD” value is recorded as 52 ± 16, the “Tumour weight % of control” value is recorded as 106% and the “Tumour weight x̄ ± SD” value came out at 7.99 ± 0.42 g.
